# Where two headings read alike, the source gives them in different places.
# Tests used:
# S. aureus = assay: Expanded panel broth microdilution MIC/MBC; conditions: for MIC: Staphylococcus aureus
# [1] = system: MRSA ATCC BAA 1556 (USA300) biofilm; assay: Static MRSA biofilm killing, plastic microtiter plate, MEM
# Streptococcus anginosus = assay: Expanded panel broth microdilution MIC/MBC; format: cell-based; conditions: for MIC: Streptococcus anginosus, read-out: MIC
# [2] = system: Streptococcus dysgalactiae; assay: Expanded panel broth microdilution MIC/MBC; format: cell-based; conditions: for MIC: Streptococcus dysgalactiae
# [3] = system: Streptococcus constellatus; assay: Expanded panel broth microdilution MIC; format: cell-based
# [4] = system: MRSA ATCC BAA 1556 (USA300); assay: In-house broth microdilution MIC screening; format: cell-based, Staphylococcus aureus; conditions: MRSA and MSSA isolates of Table 1
smiles,measurement,setting,value
CCCCCCCCCCNC(=O)CNC1(C)CC(OC2C(Oc3c4cc5cc3Oc3ccc(cc3Cl)C(O)C3NC(=O)C(NC(=O)C5NC(=O)C(CC(N)=O)NC(=O)C(NC(=O)C(CC(C)C)NC)C(O)c5ccc(c(Cl)c5)O4)c4ccc(O)c(c4)-c4c(O)cc(O)cc4C(C(=O)O)NC3=O)OC(CO)C(O)C2O)OC(C)C1O (stereo not drawn) [RV94],MIC:MBC,"S. aureus; S. aureus MRSA, MBC median of n = 5",1
same,MIC:MBC,"S. aureus; S. aureus MSSA, MBC on one organism",8
same,MIC:MBC,"S. aureus; S. aureus VISA, MBC median of n = 2",2
same,MIC:MBC,"S. aureus; S. aureus hVISA, MBC on one organism",8
same,MIC,"S. aureus; ATCC13709 / MSSA, S. aureus ATCC 13709, MSSA",0.03 µg/mL
same,MIC,"S. aureus; ATCC29213 / MSSA, S. aureus ATCC 29213, MSSA",0.015 µg/mL
same,MIC,"S. aureus; ATCC43300 / MRSA, S. aureus ATCC 43300, MRSA",0.015 µg/mL
same,MIC,"S. aureus; ATCCBAA1556|MRSA|USA300, S. aureus ATCC BAA-1556, MRSA, USA300 (expanded panel)",0.03 µg/mL
same,MIC,"S. aureus; ATCCBAA1756|MRSA|NRS384|USA300, S. aureus NRS 384, ATCC BAA-1756, MRSA, USA300",0.015 µg/mL
same,MIC,"S. aureus; MRSA / NRS123 / USA400, S. aureus NRS123, MRSA, USA400",0.015 µg/mL
same,MIC,"S. aureus; MRSA / NRS725 / USA300, S. aureus NRS725, MRSA, USA300",0.015 µg/mL
same,MIC,"S. aureus; MRSA / USA300, S. aureus MMX 3982, MRSA, USA300",0.015 µg/mL
same,MIC,"S. aureus; MRSA, S. aureus MMX 7899, MRSA",0.015 µg/mL
same,MIC,"S. aureus; MRSA, S. aureus MMX 7900, MRSA",0.015 µg/mL
same,MIC,"S. aureus; MRSA, S. aureus MMX 7901, MRSA",0.015 µg/mL
same,MIC,"S. aureus; MRSA, S. aureus MMX 7902, MRSA",0.03 µg/mL
same,MIC,"S. aureus; MRSA, S. aureus MMX 7903, MRSA",0.015 µg/mL
same,MIC,"S. aureus; MRSA, read-out: MIC (median), S. aureus MRSA, 12 isolates",0.015 µg/mL
same,MIC,"S. aureus; MSSA, S. aureus MMX 7907, MSSA",0.03 µg/mL
same,MIC,"S. aureus; MSSA, S. aureus MMX 7908, MSSA",0.015 µg/mL
same,MIC,"S. aureus; MSSA, read-out: MIC (median), S. aureus MSSA, 4 isolates",0.023 µg/mL
same,MIC,"S. aureus; NRS1 / VISA, S. aureus NRS1, VISA, Mu50",0.25 µg/mL
same,MIC,"S. aureus; NRS2, S. aureus NRS2, hVISA;Mu3",0.03 µg/mL
same,MIC,"S. aureus; NRS4 / VISA, S. aureus NRS4, VISA",0.06 µg/mL
same,MIC,"S. aureus; NRS13 / VISA, S. aureus NRS13, VISA",0.12 µg/mL
same,MIC,"S. aureus; NRS22 / VISA, S. aureus NRS22, VISA",0.12 µg/mL
same,MIC,"S. aureus; NRS23, S. aureus NRS23, hVISA",0.12 µg/mL
same,MIC,"S. aureus; NRS52 / VISA, S. aureus NRS52, VISA",0.06 µg/mL
same,MIC,"S. aureus; VISA, read-out: MIC (median), S. aureus VISA, 5 isolates",0.12 µg/mL
same,MIC,"S. aureus; VRSA, read-out: MIC (median), S. aureus VRSA, 12 isolates (JMI Laboratories)",4 µg/mL
same,MIC,"S. aureus; read-out: MIC (median), S. aureus hVISA, 2 isolates",0.08 µg/mL
same,"MIC, fold activity reduction compared to RV40",S. aureus; VISA,2 fold
same,"MIC, fold enhancement in comparison to vancomycin",S. aureus; VISA,30 fold
same,"MIC, fold activity reduction compared to RV40",S. aureus; hVISA,3 fold
same,"MIC, fold enhancement in comparison to vancomycin",S. aureus; hVISA,18 fold
same,"MIC, fold enhancement compared to telavancin",S. aureus; hVISA and VISA (both strains),2 fold
same,Reduction in MRSA biofilm titer versus control,[1]; 2.5 μg/ml,1 log10 CFU/ml
same,Reduction in MRSA biofilm titer versus control,[1]; doses 1 to 10 μg/ml,approximately 2 log10 CFU/ml
same,Concentrations with statistically significant reduction versus control biofilm,"[1]; two-way ANOVA, Bonferroni",no statistical significance
same,MIC:MBC,Streptococcus anginosus; S. anginosus AGS,>8
same,MIC,"Streptococcus anginosus; ATCC33397, S. anginosus (AGS) ATCC 33397",0.015 µg/mL
same,MIC,"Streptococcus anginosus; S. anginosus AGS, 1 isolate",0.015 µg/mL
same,MIC:MBC,"[2]; S. dysgalactiae, MBC on one organism",4
same,MIC,"[2]; S. dysgalactiae MMX 5121, read-out: MIC",8 ng/mL
same,MIC,"[2]; S. dysgalactiae MMX 5123, read-out: MIC",30 ng/mL
same,MIC,"[2]; S. dysgalactiae MMX 5124, read-out: MIC",8 ng/mL
same,MIC,"[2]; S. dysgalactiae, 3 isolates, read-out: MIC (median)",8 ng/mL
same,MIC,"[3]; S. constellatus AGS, 1 isolate",8 ng/mL
same,MIC,"[3]; Streptococcus constellatus, S. constellatus (AGS) MMX 5677, read-out: MIC",8 ng/mL
same,"MIC potency, fold less potent than RV40",[4],~2 fold
same,"MIC potency, fold more potent than telavancin",[4],~2 fold
